Results reported in ChEMBL document CHEMBL1147074, “Reevaluation of telomerase inhibition by quadruplex ligands and their mechanisms of action” (Proc Natl Acad Sci U S A, 2007).
pIC50: −log10 of the molar value. Active and inactive are the calls of the source. The rule behind the calls is not given here.

Tests used:
[1] = target: T1, Telomerase reverse transcriptase (Homo sapiens, UniProt O14746); test: Decrease in telomerase processivity assessed as decrease in telomerase elongation in presence of Telo3R primer by primer extension assay
[2] = target: T1, Telomerase reverse transcriptase; test: Inhibition of human telomerase expressed in HEK293T cells treated before telomerase elongation by telomeric repeat amplification protocol assay; format: cell-based; conditions: hek-293t
[3] = target: T1, Telomerase reverse transcriptase; test: Inhibition of human telomerase expressed in HEK293T cells in presence of primer (T2AG3)3 by primer extension assay; format: cell-based; conditions: hek-293t
[4] = target: T1, Telomerase reverse transcriptase; test: Inhibition of human telomerase expressed in HEK293T cells in presence of primer TS by primer extension assay; format: cell-based; conditions: hek-293t
[5] = target: T1, Telomerase reverse transcriptase; test: Inhibition of human telomerase expressed in HEK293T cells in presence of primer (T2AG3)4 by primer extension assay; format: cell-based; conditions: hek-293t

T1 sequence (O14746 whole entry): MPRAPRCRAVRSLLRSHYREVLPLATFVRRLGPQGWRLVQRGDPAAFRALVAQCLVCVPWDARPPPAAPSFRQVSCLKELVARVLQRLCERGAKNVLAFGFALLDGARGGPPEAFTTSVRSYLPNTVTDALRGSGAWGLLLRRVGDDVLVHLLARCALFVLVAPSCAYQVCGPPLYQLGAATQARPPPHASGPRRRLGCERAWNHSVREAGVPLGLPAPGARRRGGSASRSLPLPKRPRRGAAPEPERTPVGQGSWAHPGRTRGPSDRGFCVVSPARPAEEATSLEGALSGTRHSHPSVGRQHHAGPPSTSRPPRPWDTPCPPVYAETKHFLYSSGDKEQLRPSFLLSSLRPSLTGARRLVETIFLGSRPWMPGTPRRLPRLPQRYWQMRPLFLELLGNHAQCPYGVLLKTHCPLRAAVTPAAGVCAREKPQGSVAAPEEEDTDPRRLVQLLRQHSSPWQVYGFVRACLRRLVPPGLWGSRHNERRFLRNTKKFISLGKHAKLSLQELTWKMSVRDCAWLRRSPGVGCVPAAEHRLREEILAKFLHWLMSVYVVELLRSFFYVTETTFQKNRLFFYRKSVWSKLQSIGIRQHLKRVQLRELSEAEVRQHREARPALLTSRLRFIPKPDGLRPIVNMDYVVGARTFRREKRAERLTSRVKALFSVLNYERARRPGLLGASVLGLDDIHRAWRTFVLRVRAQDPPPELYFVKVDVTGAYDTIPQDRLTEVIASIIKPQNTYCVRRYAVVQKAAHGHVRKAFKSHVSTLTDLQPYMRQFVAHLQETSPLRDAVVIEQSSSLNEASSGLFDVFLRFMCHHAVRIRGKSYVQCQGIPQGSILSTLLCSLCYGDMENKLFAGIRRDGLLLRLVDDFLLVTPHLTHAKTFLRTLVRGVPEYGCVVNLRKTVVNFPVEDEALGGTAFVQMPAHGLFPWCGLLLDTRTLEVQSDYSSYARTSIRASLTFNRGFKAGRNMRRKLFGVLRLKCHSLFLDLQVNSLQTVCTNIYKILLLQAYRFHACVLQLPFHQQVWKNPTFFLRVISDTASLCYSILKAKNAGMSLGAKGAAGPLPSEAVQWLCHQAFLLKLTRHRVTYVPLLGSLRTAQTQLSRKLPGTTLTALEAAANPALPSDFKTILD

Activity [1]	pIC50 [2]	pIC50 [3]	pIC50 [4]	pIC50 [5]	Compound
Active	–	–	–	–	C[n+]1cc(NC(=O)c2cccc(C(=O)Nc3cc4ccccc4[n+](C)c3)n2)cc2ccccc21
inactive	9.19	6.05	5.94	7.24	Cc1oc2nc1-c1nc(co1)-c1nc(co1)-c1nc(co1)-c1nc(co1)-c1nc(co1)C1=NC(CS1)c1nc-2c(C)o1 (stereo not drawn) [TELOMESTATIN]
inactive	7.35	6.08	–	–	CN(C)c1ccc(Nc2c3ccc(NC(=O)CCN4CCCC4)cc3nc3cc(NC(=O)CCN4CCCC4)ccc23)cc1
Active	–	–	–	–	C[n+]1cc(NC(=O)c2ccc3ccc4ccc(C(=O)Nc5cc6ccccc6[n+](C)c5)nc4c3n2)cc2ccccc21

Compound	Activity [1]	pIC50 [2]	pIC50 [3]	pIC50 [4]	pIC50 [5]
C[n+]1ccc(-c2c3nc(c(-c4cc[n+](C)cc4)c4ccc([nH]4)c(-c4cc[n+](C)cc4)c4nc(c(-c5cc[n+](C)cc5)c5ccc2[nH]5)C=C4)C=C3)cc1 [TMPYP4]	–	6.26	6.15	–	–
C[n+]1ccc(-c2c3nc(c(-c4cc[n+](C)cc4)c4ccc([nH]4)c(-c4cc[n+](C)cc4)c4ccc([nH]4)c(-c4cc[n+](C)cc4)c4nc2C=C4)C=C3)cc1	inactive	–	–	–	–
